In brackets after ≈: the same amount, converted by molar mass. Several values for one entry are separate records, joined by “and”; a condition that tells them apart may be missing. Identical values can stand only once. Counter-ions that a name gives are not always drawn.
How the values were obtained:
[1] = Storage stability by HPLC purity / 1H NMR; assay type: physicochemical; details: room temperature
Description: The procedures employed for the synthesis of targeted compounds 1 and 2 are depicted in Scheme 1. The required DMCU was prepared according to a three-step sequence reported in the literature. Initially, the commercially available Boc-L-valine 3 was reacted with 2-aminoethanol 4 in the presence of HOTT and Et3N to provide the amide product 5 in 82% yield. Under treatment with 4-nitrophenyl chloroformate and DIPEA, 5 was converted into 6 in 87% yield. One equivalent or excess amount of 6 was coupled with the deprotonated DMCU, formed in situ by the treatment of DMCU with Cs2CO3, to afford compound 7 and 8, respectively. Compound 7 and 8 thus obtained were subjected to Boc deprotection under the standard conditions to give 1 and 2, respectively. The preliminary stability test was performed with NMR by applying 2 as a typical example. […] Based on our previous experience in the synthesis of DMCU-HMP, the instability could be ascribed to the cross-hydrolysis of carbonate group by the terminal amino group of side chain. Salt formation reactions of the N-terminal L-valine were then carried out to cap the nucleophilic amino group. […] 2-TFA is also stable in DMSO solution (0.1 M concentration). After 6-day storage at room temperate, the purity of 2-TFA remained intact. Accordingly, a similar salt formation procedure was employed to produce the stable 1-TFA. Compound 1-TFA along with 2-TFA were then applied for the following evaluations.
Figure 2 The stability assessments of 2 and 2-TFA. (A) A clear solution of 2 in d-chloroform was subjected to a purity assessment by ^1H NMR spectroscopy at various storage times (fresh prepared (≤1 h); 1 day; 4 days). (B) The HPLC purity of fresh prepared 2-TFA was 95.74%. The fresh prepared 2-TFA in a solid state was stored at room temperature for another 6 days and then dissolved in water for HPLC analysis. The HPLC purity was decided as 95.55%. The fresh prepared 2-TFA was dissolved in DMSO and the resulting solution was stored at room temperature for another 6 days. HPLC purity of 2-TFA in the DMSO solution was 94.66%. […]

NCI-H358 = assay: In vitro antiproliferative MTT assay; assay type: cell-based; details: Homo sapiens, NCI-H358, 72 h, mean ± SD
Description: (§1) Human NSCLC cell lines (NCI-H460, NCI-H358 and A549) were obtained from ATCC. All cell lines were grown in RPMI medium supplemented with 10% fetal bovine serum (FBS) and antibiotics and incubated at 37 °C in a humidified atmosphere with 5% CO2.
(§2) Antiproliferative activities to various compounds was assessed using MTT assay. In brief, 2000–5000 cells were seeded in each well of 96-well plates and incubated at 37 °C overnight before drug treatment. After a three-day drug treatment, MTT solution was added to each well and the plates were further incubated at 37 °C for 6 h. Measurement of cell viability was assessed by absorbance at 570 nm. The IC50 values for each drug were determined using CompuSyn software based on the median-effect principle and plot.

A549 = assay: In vitro antiproliferative MTT assay; assay type: cell-based; details: Homo sapiens, A549, 72 h, mean ± SD
Description: as §1, §2

NCI-H460 = assay: In vitro antiproliferative MTT assay; assay type: cell-based; details: Homo sapiens, NCI-H460, 72 h, mean ± SD
Description: as §1, §2

NCI-H460 cells = assay: Intracellular uptake and bioconversion by LC-MS of cell extracts; assay type: in vitro ADME, Human; details: 10 μM
Description: To test our hypothesis, intracellular uptake of DMCU, 1-TFA, and 2-TFA were evaluated in NCI-H460 cells which cells were more sensitive to 1-TFA and 2-TFA than DMCU. The intracellular drug uptake was generally evaluated using a fluorescence microscope or flow cytometry. However, the extremely similar chromophores among DMCU, 1-TFA, and 2-TFA caused failure in detection of individual signals by these two methodologies and therefore drew us to develop a versatile LC-MS based analysis for the cellular uptake evaluations. To estimate the cellular uptake, NCI-H460 cells were treated with each compound for the indicated time periods and the cell extracts were then subjected to LC-MS analysis to determine the intracellular levels of DMCU, 1-TFA, and […] (Figure 4). In the treatment groups, the intracellular levels of each compound were detected by LC-MS where the amount of the compound was quantified by comparing the LC-MS signals of cellular extracts to the corresponding drug calibration curves. […] The maximal uptake levels of 1-TFA and DMCU were detected by 60 ng and 7 ng, respectively, at 60 min after treatment (Figure 4A,B). In 2-TFA treated group, the maximal cellular uptakes occurred during the time interval from 30 to 60 min after drug treatment and acquired 100 ng of DMCU, 12 ng of 1-TFA and 1.2 ng of 2-TFA (Figure 4A–C). […] The cellular uptake efficiency of H460 cells was then evaluated in terms of the total quantity of DMCU, 1-TFA, and 2-TFA. […]

[2] = Water solubility by LC-MS analysis; assay type: physicochemical; details: for solubility: 25 °C, thermodynamic from solid, room temperature (25 ± 1 °C)
Source text: 1-TFA, and 2-TFA with the linkage of L-valine-TFA side chain on either or both of the phenol groups were expected to show an increment of water solubility. We used LC-MS analysis to determine the water solubility of DMCU, 1-TFA, and 2-TFA. Initially, the LC signals detected by ESI+ mode for each compound were assigned as follows: [M + Na]^+ for DMCU, [M + H]^+ for 1-TFA, and [M + 2H]^2+ for 2-TFA (Figure 3A). The extracted ion chromatogram (XIC) was acquired by extracting the m/z signal of 419.1461 for DMCU, 583.2652 for 1-TFA, and 385.1865 for 2-TFA with a tolerance of ±5 ppm for each sample. The retention time of signals obtained from reverse phase liquid chromatography (RPLC) was 5.15 min (DMCU), 3.97 min (1-TFA), and 3.22 min (2-TFA) (Figure 3B). The limit of quantification was 0.16 ng for DMCU (S/N = 375.81) and 1 ng for 1-TFA (S/N = 231.24) or 2-TFA (S/N = 131.19). […] Next, to determine the water solubility of DMCU, 1-TFA and 2-TFA, aqueous solutions of these compounds at different concentrations were prepared for the generation of corresponding calibration curves.
The quantitative analysis was performed using LC-MS and the results were shown in Figure 3C–E. Corresponding saturated water solutions were prepared and then diluted with ultrapure water for LC-MS analysis. […] For the analysis of DMCU water solubility, a clear solution of DMCU in 40% MeOH and 60% water (with a concentration of 1000 ppm) was prepared and divided into four portions. Each part was diluted with an appropriate amount of ultrapure water, resulting in DMCU precipitates, and the precipitates were then removed by centrifugation to give four samples with theoretical concentrations of 0.8, 4, 20, 100 ppm, respectively. The calculated concentrations of these […] samples were decided by comparing the LC-MS signals of corresponding samples to the calibration curves. (Figure 3F). The maximum concentration of DMCU in water was confirmed as 18 ppm at room temperature.
The stock solutions of 1-TFA and 2-TFA were prepared by dissolving 20 mg of 1-TFA and 2-TFA, respectively, in 1 mL of 1% formic acid(aq). The standard solution of 1-TFA or 2-TFA of 0.5, 1.25, 2.5, 5 and 12.5 μg/mL was prepared by diluting the aforementioned stock solution with an adequate amount of 40% methanol in ultrapure water. The stock solution of DMCU was prepared by dissolving 10 mg of DMCU in 1 mL of methanol. The DMCU stock solution was diluted with 40% methanol in ultrapure water to afford three standard solutions with concentrations of 0.08, 0.4, and 2 μg/mL.
The saturated aqueous solutions of compound 1-TFA and 2-TFA were prepared by a three-steps sequence including supersaturated solution preparation (addition of 20 mg compounds into 50 μL ultrapure water), centrifugation (10 min at 14,000× g), and collection of the resulting supernatants to afford the desired solutions. The saturated aqueous solutions were then diluted by ultrapure water as the ratio of 1 to 100,000 for LC-MS analysis.
The LC-MS system consisted of an ultraperformance liquid chromatography (UPLC) system (ACQUITY UPLC I-Class, Waters, Milford, MA, USA and an ESI/APCI source of 4 kDa quadrupole time-of-flight mass spectrometer (Waters VION, Waters, Milford, MA, USA). A BEH C18 column (2.1 × 100 mm, Walters, Milford, MA, USA) was equipped to perform chromatographic separation. The flow rate of 0.2 mL/min with a column temperature of 35 °C was set for each sample injection. The elution started with 60% mobile phase A (ultrapure water + 0.1% formic acid) and 40% mobile phase B (100% methanol + 0.1% formic acid), then held at 40% B for 0.5 min, raised to 95% B in 5.5 min, held at 95% B for 1 min, and then lowered to 40% B in 1 min. The column was equilibrated by pumping 40% B for 4 min. […]

[3] = tested on: HCT-116 colon cancer cell; details: cited from earlier work
MDA-MB-231 breast cancer = details: cited from earlier work
[4] = tested on: NCI-H460, NCI-H358 and A549 cell lines; assay: In vitro antiproliferative MTT assay, range over the NSCLC lines; assay type: cell-based; details: Homo sapiens, read-out: IC50 values in these cell lines
Description: as §1, §2

| SMILES | IC50 (NCI-H358) [µM] | IC50 (A549) [µM] | IC50 (NCI-H460) [µM] | solubility ([2]; water, LC-MS) [mg/mL] | fold increased solubility compared to DMCU ([2]; water, room temperature) | other results |
| --- | --- | --- | --- | --- | --- | --- |
| COc1cc(/C=C/C(=O)C(C)(C)C(=O)/C=C/c2ccc(OC(=O)OCCNC(=O)[C@@H](N)C(C)C)c(OC)c2)ccc1OC(=O)OCCNC(=O)[C@@H](N)C(C)C [Compound 2] |  |  |  |  |  | stability by 1H NMR (in words) ([1]; solution in d-chloroform, fresh, 1 day, 4 days): gradually degraded into unidentified products |
| COc1cc(/C=C/C(=O)C(C)(C)C(=O)/C=C/c2ccc(OC(=O)OCCNC(=O)[C@@H](N)C(C)C)c(OC)c2)ccc1OC(=O)OCCNC(=O)[C@@H](N)C(C)C [Compound 2-TFA] | 1.26 ± 0.06 | 1.99 ± 0.24 | 1.69 ± 0.04 | 376 | 20,800 fold and > 10,000 fold | HPLC purity after storage in DMSO solution ([1]; DMSO solution (0.1 M), 6 days, fresh prepared 95.74%): 94.66%; HPLC purity after storage as solid ([1]; solid state, 6 days, fresh prepared 95.74%): 95.55%; maximal cellular uptake: intracellular 2-TFA (NCI-H460 cells; 2-TFA-treated NCI-H460 cells, 30 to 60 min after drug treatment): 1.2 ng |
| COc1cc(/C=C/C(=O)C(C)(C)C(=O)/C=C/c2ccc(OC(=O)OCCNC(=O)[C@@H](N)C(C)C)c(OC)c2)ccc1O [Compound 1-TFA] | 1.92 ± 0.13 | 3.17 ± 0.14 | 1.95 ± 0.16 | 250 | 13,700 fold and > 10,000 fold | maximal uptake level: intracellular 1-TFA (NCI-H460 cells; 1-TFA-treated NCI-H460 cells, at 60 min after treatment): 60 ng |
| COc1cc(/C=C/C(=O)C(C)(C)C(=O)/C=C/c2ccc(OC(=O)C(C)(CO)CO)c(OC)c2)ccc1OC(=O)C(C)(CO)CO [DMCU-HMP, 4,4-dimethyl substituted curcuminoid 2,2-bis(hydroxymethyl)propionate] |  |  |  |  |  | IC50 [3]: 3.1 µM; IC50 (MDA-MB-231 breast cancer): 2.2 µM |
| COc1cc(/C=C/C(=O)C(C)(C)C(=O)/C=C/c2ccc(O)c(OC)c2)ccc1O [DMCU, 4,4-Dimethylcurcumin] | 1.62 ± 0.12 | 2.5 ± 0.03 | 2.13 ± 0.16 | 0.018 (≈ 45.4 µM) |  | maximal uptake: intracellular DMCU (NCI-H460 cells; DMCU-treated NCI-H460 cells, at 1–2 h post-drug treatment, extract of approx. 1 × 10^6 cells): about 100 ng; IC50 [4]: 1.62 to 2.5 µM; maximum concentration in water ([2]; room temperature, dilution of 40% MeOH solution with water, precipitate removed, LC-MS): 18 ppm; water solubility (in words) ([2]; water): virtually insoluble in water |

From publication PMC8624457, “Synthesis and Characterization of the Ethylene-Carbonate-Linked L-Valine Derivatives of 4,4-Dimethylcurcumin with Potential Anticancer Activities” (Molecules, 2021)
